The values below come from US20120301402A1, “RAP1A AS A MARKER FOR CARDIAC ARRHYTHMIA” (NATIONWIDE CHILDREN'S HOSPITAL, INC., priority 2011, published 2012).

For assay [1], the system named is isolated Rap1A-heterozygous cardiac myocytes. The conditions noted are these: combination with isoproterenol, waves resumed after washout.
Experimental: Ventricular myocytes were isolated from male C57BL/6 control wild-type (WT) and Rap1A-heterozygous (Rap1a^+/−) mice. Whole hearts were cannulated and hung on a Langendorff apparatus and tissue treated for enzymatic digestion for 3-5 minutes. The ventricles were minced and myocytes were dissociated by trituration. Subsequently, the myocytes were filtered, centrifuged, and used for the studies within 6 hours of isolation. Calcium transients were measured by loading isolated myocytes with fluo 4-AM (10 μM) for 30 min, followed by an additional 30 min for intracellular deesterification. Cell fluorescence was measured by epifluorescence. The intracellular calcium concentration [Ca^2+]i of single cells was measured with excitation at 480±20 nm and emission at 535±25 nm. Data were expressed as ΔF/F0, where F is the fluorescence intensity, and F0 is the intensity at rest. Myocytes were stimulated at 1 Hz. Simultaneous measurement of shortening was also performed using edge detection. Data were expressed as cell shortening (μm). Myocytes were analyzed from 2-3 independent isolations per group.
Myocytes were analyzed from 2-3 independent isolations per group.
Assay [2] deals with isolated ventricular myocytes. As to the kind of experiment: After-contractions protocol in isolated ventricular myocytes. As to conditions: 5 s stimulation, counted 40 s after stimulation withdrawn. Type of assay: cell-based, mice. Here is the method:
FIG. 10 provides graphs showing that aftercontractions increase in heterozygous Rap1A myocytes. Further investigation of the spontaneous waves was performed using an “after-contractions” protocol by stimulating for 5 seconds and counting the number of after-contractions that occur 40 seconds after the stimulation is withdrawn. (A) Rap1A-heterozygous myocytes have increased after-contractions compared to control wild-type (WT) myocytes. (B) Inhibition of protein kinase C (PKC) by bisindolylmaleimide I (BIM, 1 μM) increases after-contractions in control wild-type (WT) and Rap1A-heterozygous myocytes. (C) Protein kinase C (PKC) activation by phorbol myristate acetate (PMA, 150 nM) leads to a decrease in after-contractions in Rap1A-heterozygous myocytes. (D) Summary data of WT/Rap1A-heterozygous+/− BIM (Inhibitor) and PMA (Activator). Both drugs were incubated in isolated ventricular myocytes before measurements were taken to activate or inhibit PKC.

SMILES strings stand for the structures.

`Cc1cccc(C)c1OCC(C)N` (stereo not shown) [Mexiletine]: the “After-transients / spontaneous calcium waves” value in assay [1] was “rescued”.

Regarding `CN(C)CCCn1cc(C2=C(c3c[nH]c4ccccc34)C(=O)NC2=O)c2ccccc21` [bisindolylmaleimide I], the After-contractions entry is listed as “increases” in assay [2] (Rap1A-heterozygous myocytes, 1 μM) and “increases” in assay [2] (control wild-type (WT) myocytes, 1 μM). `CCCCCCCCCCCCCC(=O)O[C@@H]1[C@@H](C)[C@@]2(O)[C@@H](C=C(CO)C[C@]3(O)C(=O)C(C)=C[C@@H]23)[C@@H]2C(C)(C)[C@]12OC(C)=O` [phorbol myristate acetate]: the After-contractions result in assay [2] (Rap1A-heterozygous myocytes, 150 nM) is on record as “decrease”.
